# Measurements reported in patent US8563067B2, “Extended shelf life and bulk transport of perishable organic liquids with low pressure carbon dioxide” (Cornell Research Foundation, Inc., priority 2004, dated 2013).
# Legend:
# [1] = tested on: aerobic bacteria (SPC) in raw milk; assay: Standard Plate Count (SPC) of raw milk held under CO2 pressure, laboratory scale (Example 1); type: cell-based; details: for SPC increase / SPC reduction from initial SPC: 20° C.; for SPC reduction versus control: 1378 kPa
# Source text: The apparatus for pressurizing and holding raw milk samples is shown in schematic form in FIG. 9 and consisted of two 13-ml stainless steel 1.27-cm OD cylindrical vessels 60, 61; one vessel 60 was pressurized while the other served as a control 61. Compressed and filtered CO2 from a high-pressure tank 62 was used (Empire Airgas, Inc, Elmira, N.Y.). The system consisted of pressure regulator 63, a fine metering valve 64 (NUPRO Company, Willoughby, Ohio), an on-off valve 65 (Circle Seal, Anaheim, Calif.) and a check valve 66 (NUPRO Company, Willoughby, Ohio). The fine metering valve controlled gas flow such that the time to reach desired pressure was less than five seconds. The gas entered the vertically positioned treatment vessel 60 from the bottom and was thus bubbled through the milk until the set pressure was reached. A check valve 66 was placed immediately before the inlet to the pressure vessel to prevent the backward flow of the fluid milk into the gas inlet line. The outlet of the vessels consisted of a pressure gauge 67 and a high-pressure release valve 68 (High Pressure Equipment, Erie, Pa.). The release valve 68 was kept tightly closed during treatment. The control vessel 61 was closed off from both ends but not connected to the carbon dioxide line inlet and outlet lines.
# Milk samples were mixed and 5 ml of milk added into the treatment and control vessels. The treatment vessel was connected to the apparatus and the control vessel closed off. Both vessels were placed in the water bath. When the desired temperatures were attained in both treatment and control vessels, CO2 was introduced through the bottom of the treatment vessel until the set pressure was reached. The CO2 pressure was maintained throughout the test period. When the desired time was reached, the CO2 inlet was turned off, the pressure release valve on the outlet line opened, and the pressure released in under one minute. After depressurization, the treatment and control vessels were removed from the water bath and their external surfaces were wiped dry, sanitized with 95% ethanol, detached from the apparatus and transferred into sterile containers for dilution and plating.
# Short (<1 h) and longer term (1, 4 and 9 day) experiments were conducted. Raw milk (Northeast Dairy Herd Improvement Association, Inc.; Ithaca, N.Y.) in 5 ml aliquots was treated at each of the following combinations of CO2 pressure, temperature, and time (kPa/° C./min): 1378/5/15, 2757/5/5, 3446/5/5. In longer term studies, raw milk from the T&R Center was first stored at 6° C./48 h so that the SPC were at detectable levels at treatment initiation. […]
# Raw milk from the T&R Center was monitored for changes in aerobic bacteria, gram-negative bacteria and total Lactobacillus spp. as follows: CO2 pressures of 0 (control), 68, 172, 344, 516 and 689 kPa, at 6.1° C. for 4-days. SPC, gram-negative bacteria and total Lactobacillus spp. were enumerated before (day 0) and after (day 4) treatment. Gram negative bacteria were enumerated on MacConkey Agar (Difco Manual, Becton Dickinson & Co., Sparks, Md.), a selective and differential media which can be used to discriminate between lactose fermenting and non-lactose fermenting gram-negative bacteria. Use of this media allows a one-step method of obtaining estimates of both coliform and non-coliform gram negative bacteria. Coliform bacteria may include species of Escherichia, Klebsiella and Enterobacter, potential pathogens and/or spoilage organisms. Non-coliform gram negative bacteria may include spoilage organisms such as pseudomonads or potential pathogens such as Salmonella spp. or Shigella spp. Numbers of Lactobacillus spp. populations were estimated using acidified (adjusted to pH 5.5 with glacial acetic acid) Lactobacillus MRS agar (Difco Manual, Becton Dickinson & Co., Sparks, Md.) after incubation under anaerobic conditions; suspect colonies were confirmed by gram stain. […]
# [2] = tested on: SPC (total microbial growth) in whole raw milk; assay: SPC of bulk raw milk in CO2 pressurized tank container (Example 2); type: cell-based; details: bottom of the tank, entire 17 day study
# Source text: The apparatus pressurizing and holding raw milk samples consisted of a 5300 U.S. gallon (20,000 liter) food grade, insulated, pressure vessel shipping container of the model HO4 type utilized by Agmark Foods, Inc. Compressed and filtered CO2 from high pressure tank was used, including a Praxair inline 3A sparger. The Agmark shipping container was sanitized on Aug. 4, 2004. The following day, the tank was pre-chilled with a spray of CO2 and filled with 3,291 U.S. gallons of fresh raw milk obtained from the Cornell University Teaching and Research Center Bovine Heard (T&R Center; Dryden, N.Y.) on Aug. 5, 2004. The raw milk from the T&R Center was received less than 12 hours after milking and was introduced from a holding tank into the pressure vessel at a temperature of approximately 1 to 2° C. Prior to filling the pressure vessel, the vessel was sealed and pressurized with carbon dioxide to a pressure of 25 psi (172.5 kPa). Milk was pumped into the tank through the discharge valve at the rear of the tank and CO2 was injected into the flow of the milk with an inline Praxair 3A sparger at a rate sufficient to infuse approximately 2000 parts per million at a gas flow rate of approximately 16 cubic feet per minute. The raw milk was pumped into the vessel at a flow rate of 70 to 80 gallons per minute with flowing CO2 under a 40 psi line pressure and 25 psi tank pressure. […]
compound,measurement,setting,value
"O=C=O [CO2, carbon dioxide]",microbial growth compared to control milks,"[1]; 68, 172, 344, 516 and 689 kPa, 6.1° C., 4 days",significantly reduced microbial growth
same,SPC increase from initial SPC,"[1]; 68 kPa, 6.1° C., 4 days",1.28 log10 cfu/ml
same,SPC increase,"[1]; 68 kPa, 24 h",1.07 log10 cfu/ml
same,SPC increase from initial SPC,"[1]; 172 kPa, 6.1° C., 4 days",1.10 log10 cfu/ml
same,SPC increase,"[1]; 172 kPa, 24 h",0.59 log10 cfu/ml
same,decrease in counts (SPC),"[1]; 344 kPa CO2, 24 h, 10° C.",0.31 log10 cfu/ml
same,SPC increase from initial SPC,"[1]; 344 kPa, 6.1° C., 4 days",0.94 log10 cfu/ml
same,SPC reduction from initial SPC,"[1]; 344 kPa, 24 h",0.39 log10
same,decrease in counts (SPC),"[1]; 516 kPa CO2, 24 h, 10° C.",0.56 log10 cfu/ml
same,SPC of treated samples versus initial untreated samples,"[1]; 516 kPa CO2 pressure, 6.1° C., 4 days",not significantly different
same,SPC increase from initial SPC,"[1]; 516 kPa, 6.1° C., 4 days",0.82 log10 cfu/ml
same,SPC reduction from initial SPC,"[1]; 516 kPa, 24 h",0.62 log10
same,time for treated milk to reach SPC of 10^5 cfu/ml,"[1]; 689 kPa CO2, 4° C.",8 days
same,decrease in counts (SPC),"[1]; 689 kPa CO2, 24 h, 10° C.",0.71 log10 cfu/ml
same,"SPC counts, Treated, 4 Days","[1]; 689 kPa CO2 pressure, 4° C., 4 days, raw milk",7.8 * 10^2b cfu/ml
same,"SPC counts, Treated, 6 Days","[1]; 689 kPa CO2 pressure, 4° C., 6 days, raw milk",4.4 * 10^4c cfu/ml
same,"SPC counts, Treated, 8 Days","[1]; 689 kPa CO2 pressure, 4° C., 8 days, raw milk",9.7 * 10^4d cfu/ml
same,"SPC counts, Treated, 9 Days","[1]; 689 kPa CO2 pressure, 4° C., 9 days, raw milk",2.4 * 10^5e cfu/ml
same,extension of treatment holding time compared to control,"[1]; 689 kPa, 4° C.",at least four days
same,treated milk SPC,"[1]; 689 kPa, 4° C., 6 days",4.64 log10 cfu/ml
same,treated milk SPC,"[1]; 689 kPa, 4° C., 8 days",4.99 log10 cfu/ml
same,treated milk SPC,"[1]; 689 kPa, 4° C., 9 days",5.37 log10 cfu/ml
same,treated milk SPC,"[1]; 689 kPa, 4° C., four days (from 3.48)",2.89 log10 cfu/ml
same,SPC lower than initial counts,"[1]; 689 kPa, 6.1° C., 4 days",0.89 log10 cfu/ml
same,SPC lower than the controls,"[1]; 689 kPa, 6.1° C., 4 days",3.48 log10 cfu/ml
same,difference in SPC between control and test milks,"[1]; 689 kPa, 24 h, 10° C.",2.68 log10 cfu/ml
same,SPC reduction from initial SPC,"[1]; 689 kPa, 24 h",0.82 log10
same,SPC reduction versus control,[1]; 15 min,0.33 log10
same,SPC reduction versus control,[1]; 30 min,0.39 log10
same,SPC of raw milk compared to untreated controls,"[1]; all time-pressure combinations, even 68 kPa and 20° C.",significantly reduced
same,bacterial levels versus quality limit of 5 log cfu/ml SPC,[2],did not reach the limit
